target: T1, human M4 muscarinic acetylcholine receptor (Homo sapiens, UniProt P08173); test: human FLIPR-based M4 PAM assay (CHO-K1 cells with human M4 receptor and Gαqi5, calcium dye fluorescence); assay type: cell-based; details: inflection point of 4 parameter logistic fit; acetylcholine added at 20% of maximum response; read-out: M4PAM IP
T1 construct: expressed in transfected cells
T1 sequence (P08173 1-479): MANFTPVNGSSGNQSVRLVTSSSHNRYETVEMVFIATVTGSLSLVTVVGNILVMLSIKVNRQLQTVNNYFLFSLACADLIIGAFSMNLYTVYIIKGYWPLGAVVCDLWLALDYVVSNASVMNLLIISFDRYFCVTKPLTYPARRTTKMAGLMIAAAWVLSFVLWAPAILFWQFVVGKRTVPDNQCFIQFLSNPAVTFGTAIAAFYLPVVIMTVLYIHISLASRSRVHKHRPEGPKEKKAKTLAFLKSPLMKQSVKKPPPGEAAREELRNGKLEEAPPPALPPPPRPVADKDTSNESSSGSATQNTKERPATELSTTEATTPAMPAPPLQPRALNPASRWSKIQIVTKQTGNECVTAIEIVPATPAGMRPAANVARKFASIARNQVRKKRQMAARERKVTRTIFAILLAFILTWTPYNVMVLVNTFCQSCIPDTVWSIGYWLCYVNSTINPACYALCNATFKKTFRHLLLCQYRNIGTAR
Protocol: In a typical experiment the M4 muscarinic acetylcholine receptor modulating activity of the compounds of the present invention was determined in accordance with the following experimental method. CHO-K1 cells stably transfected with human M4 receptor and chimeric G-protein Gαqi5 (Coward P, et al., Analytical Biochemistry, 270:242-248 (1999)) are thawed from liquid N2 storage, resuspended in growth medium, plated in black, clear bottom 384 well plates, and incubated 16-20 hours at 37° C., 5% CO2. On the day of assay, growth medium is removed, the cells are washed 2 times with wash buffer, and cells are incubated in dye loading buffer at 37° C., 5% CO2 for ˜1 hour. Following dye loading the cell plates are placed in a FLIPR Tetra instrument and while monitoring dye fluorescence (excitation […]), 10 uL of test substance at increasing concentrations is added, and fluorescence values are recorded for 4 min. Next, 10 uL of acetylcholine is added (final concentration calculated so as to achieve 20% of the maximum acetycholine response), and the fluorescence reading is continued for 3.5 min. In some cases, a third addition of acetylcholine (final concentration calculated to achieve 70% of the maximal acetylcholine response) is performed. The resulting dose response curves are fit to a 4 parameter logistic equation and the final result is determined as the inflection point (IP) of the curve
CHO-K1 cells stably transfected with human M4 receptor and chimeric G-protein Gαqi5 are thawed from liquid N2 storage, resuspended in growth medium, plated in black, clear bottom 384 well plates, and incubated 16-20 hours at 37° C., 5% CO2.
On the day of assay, growth medium is removed, the cells are washed 2 times with wash buffer, and cells are incubated in dye loading buffer at 37° C., 5% CO2 for ˜1 h. Following dye loading the cell plates are placed in a FLIPR Tetra instrument and while monitoring dye fluorescence ([…]), 10 uL of test substance at increasing concentrations is added, and fluorescence values are recorded for 4 min. Next, 10 uL of acetylcholine is added (final concentration calculated so as to achieve 20% of the maximum acetycholine response), and the fluorescence reading is continued for 3.5 min. In some cases, a third addition of acetylcholine (final concentration calculated to achieve 70% of the maximal acetylcholine response) is performed.

First: Cn1cnc2cc(-c3nc(C#N)ccc3-c3cnn(CC4(C)CCOCC4)c3)ccc21 [Example 38, 6-(1-methyl-1H-benzimidazol-5-yl)-5-{1-[(4-methyltetrahydro-2H-pyran-4-yl)methyl]-1H-pyrazol-4-yl}pyridine-2-carbonitrile]
Second: CC1(Cn2cc(-c3ccc(C#N)nc3-c3ccn4ccnc4c3)cn2)CCOC1 (racemic) [Example 108, 6-(imidazo[1,2-a]pyridin-7-yl)-5-(1-((3-methyltetrahydrofuran-3-yl)methyl)-1H-pyrazol-4-yl)picolinonitrile]
The EC50 of the first is 1.7-fold higher: 165 nM for the first, 95.9 nM for the second.

First: Cc1nc2cc(-c3ncc(F)cc3-c3cnn(CCC(C)(C)F)c3)ccc2n1C [Example 120, 5-(5-fluoro-3-(1-(3-fluoro-3-methylbutyl)-1H-pyrazol-4-yl)pyridin-2-yl)-1,2-dimethyl-1H-benzo[d]imidazole]
Second: Cc1nc2cc(-c3ncc(F)cc3-c3cnn(CC4CC(F)(F)C4)c3)ccc2n1C [Example 61, 5-(3-(1-((3,3-difluorocyclobutyl)methyl)-1H-pyrazol-4-yl)-5-fluoropyridin-2-yl)-1,2-dimethyl-1H-benzo[d]imidazole]
The EC50 of the first is 2.5-fold higher: 401 nM for the first, 161 nM for the second. The second is the more potent here.

Going from CCC1(Cn2cc(-c3ccc(C#N)nc3-c3ccn4ccnc4c3)cn2)CC1 [Example 37, 5-{1-[(1-ethylcyclopropyl)methyl]-1H-pyrazol-4-yl}-6-imidazo[1,2-a]pyridin-7-ylpyridine-2-carbonitrile] to N#Cc1ccc(-c2cnn(CC3(CF)CC3)c2)c(-c2ccn3ccnc3c2)n1 [Example 19, 5-(1-{[1-(fluoromethyl)cyclo-propyl]methyl}-1H-pyrazol-4-yl)-6-imidazo[1,2-a]pyridin-7-ylpyridine-2-carbonitrile], the EC50 rises from 14.5 nM to 49.9 nM (3.4-fold). The first is the more potent here.

First: Cc1cn2ccc(-c3ncccc3-c3cnn(CC(C)(C)C)c3)cc2n1 [Example 87, 7-{3-[1-(2,2-dimethylpropyl)-1H-pyrazol-4-yl]pyridin-2-yl}-2-methylimidazo[1,2-a]pyridine]
Second: CC(C)(C)Cn1cc(-c2ccc(C(F)F)nc2-c2ccn3ccnc3c2)cn1 [Example 98, 7-{6-(difluoromethyl)-3-[1-(2,2-dimethylpropyl)-1H-pyrazol-4-yl]pyridin-2-yl}imidazo[1,2-a]pyridine]
The EC50 of the first is 3-fold higher: 121 nM for the first, 40.8 nM for the second.

Going from Cn1nc2ccc(-c3nc(C#N)ccc3-c3cnn(CC(C)(C)C)c3)cc2n1 [Example 69, 5-[1-(2,2-dimethylpropyl)-1H-pyrazol-4-yl]-6-(2-methyl-2H-benzotriazol-5-yl)pyridine-2-carbonitrile] to Cc1nnc2cc(-c3nc(C#N)ccc3-c3cnn(CC(C)(C)C)c3)ccn12 [Example 70, 5-[1-(2,2-dimethylpropyl)-1H-pyrazol-4-yl]-6-(3-methyl[1,2,4]triazolo[4,3-a]pyridin-7-yl)pyridine-2-carbonitrile], the EC50 falls from 243 nM to 102 nM (2.4-fold).

First: CC(C)(C)Cn1cc(-c2ccc(C3CC3)nc2-c2ccn3ccnc3c2)cn1 [Example 99, 7-{6-cyclopropyl-3-[1-(2,2-dimethylpropyl)-1H-pyrazol-4-yl]pyridin-2-yl}imidazo[1,2-a]pyridine]
Second: CC(C)(C#N)Cn1cc(-c2ccc(C#N)nc2-c2ccn3ccnc3c2)cn1 [Example 46, 5-[1-(2-cyano-2-methylpropyl)-1H-pyrazol-4-yl]-6-imidazo[1,2-a]pyridin-7-ylpyridine-2-carbonitrile]
The EC50 of the first is 1.6-fold lower: 152 nM for the first, 242 nM for the second.

CN1Cc2ncc(-c3nc(C#N)ccc3-c3cnn(CC(C)(C)C)c3)cc2C1=O [Example 65, 5-[1-(2,2-dimethylpropyl)-1H-pyrazol-4-yl]-6-(6-methyl-5-oxo-6,7-dihydro-5H-pyrrolo[3,4-b]pyridin-3-yl)pyridine-2-carbonitrile] and Cc1nc2cc(-c3nc(C#N)ccc3-c3cnn(CC(C)(C)C)c3)cnc2n1C [Example 89, 6-(2,3-dimethyl-3H-imidazo[4,5-b]pyridin-6-yl)-5-[1-(2,2-dimethylpropyl)-1H-pyrazol-4-yl]pyridine-2-carbonitrile] are within 1.5-fold of each other in EC50: 93.1 nM for the first, 116 nM for the second.

First: Cc1ccc(-c2cnn(CCC(C)C)c2)c(-c2ccc3c(c2)CN(C(=O)OC(C)(C)C)C3)n1 [Example 76, tert-butyl 5-{6-methyl-3-[1-(3-methylbutyl)-1H-pyrazol-4-yl]pyridin-2-yl}-1,3-dihydro-2H-isoindole-2-carboxylate]
Second: Cc1ccc(-c2cnn(CC34CC(C3)C4)c2)c(-c2ccc3c(c2)C(=O)N(C)C3)n1 [Example 7, 6-{3-[1-(bicyclo[1.1.1]pent-1-ylmethyl)-1H-pyrazol-4-yl]-6-methylpyridin-2-yl}-2-methyl-2,3-dihydro-1H-isoindol-1-one]
The EC50 of the first is 4.3-fold higher: 76 nM for the first, 17.6 nM for the second. The second is the more potent here.

Cc1ccc(-c2cnn(CC34CC(C3)C4)c2)c(-c2ccc3c(c2)C(=O)NC3)n1 [Example 8, 6-{3-[1-(bicyclo[1.1.1]pent-1-ylmethyl)-1H-pyrazol-4-yl]-6-methylpyridin-2-yl}-2,3-dihydro-1H-isoindol-1-one] and Cc1ccc(-c2cnn(CC3(C)CCC(F)(F)CC3)c2)c(-c2ccc3c(c2)C(=O)N(C)C3)n1 [Example 15, 6-(3-{1-[(4,4-difluoro-1-methylcyclohexyl)methyl]-1H-pyrazol-4-yl}-6-methylpyridin-2-yl)-2-methyl-2,3-dihydro-1H-isoindol-1-one] are within 1.5-fold of each other in EC50: 26.6 nM for the first, 26.5 nM for the second.

First: CC(C)(C)Cn1cc(-c2ccc(C#N)nc2-c2ccn3c(F)cnc3c2)cn1 [Example 82, 5-[1-(2,2-dimethylpropyl)-1H-pyrazol-4-yl]-6-(3-fluoroimidazo[1,2-a]pyridin-7-yl)pyridine-2-carbonitrile]
Second: CC(C)(C)Cn1cc(-c2ccc(C#N)nc2-c2ccn3cc(Cl)nc3c2)cn1 [Example 67, 6-(2-chloroimidazo[1,2-a]pyridin-7-yl)-5-[1-(2,2-dimethylpropyl)-1H-pyrazol-4-yl]pyridine-2-carbonitrile]
The EC50 of the first is 2.9-fold higher: 51.6 nM for the first, 17.7 nM for the second. The second is the more potent here.

Going from Cc1cc(-c2cnn(CC3(C(F)(F)F)CC3)c2)c(-c2ccn3ccnc3c2)nc1C#N [Example 138, 6-imidazo[1,2-a]pyridin-7-yl-3-methyl-5-(1-{[1-(trifluoromethyl)cyclopropyl]methyl}-1H-pyrazol-4-yl)pyridine-2-carbonitrile] to Cc1cc(-c2cnn(CC3(C(F)(F)F)CC3)c2)c(-c2ccn3ccnc3c2)nc1C [Example 139, 7-[5,6-dimethyl-3-(1-{[1-(trifluoromethyl)cyclopropyl]methyl}-1H-pyrazol-4-yl)pyridin-2-yl]imidazo[1,2-a]pyridine], the EC50 rises from 59.9 nM to 162 nM (2.7-fold).

Compared with N#Cc1ccc(-c2cnn(C[C@H]3C[C@@H]3C(F)(F)F)c2)c(-c2ccn3ccnc3c2)n1 [Example 25, 6-imidazo[1,2-a]pyridin-7-yl-5-(1-{[(1S,2S)-2-(trifluoromethyl)cyclo-propyl]methyl}-1H-pyrazol-4-yl)pyridine-2-carbonitrile], CC1(Cn2cc(-c3ccc(C#N)nc3-c3ccn4ccnc4c3)cn2)CCC1 [Example 94, 6-imidazo[1,2-a]pyridin-7-yl-5-{1-[(1-methylcyclobutyl)methyl]-1H-pyrazol-4-yl}pyridine-2-carbonitrile] is 3.3-fold lower in EC50: 78.1 nM for the first, 23.6 nM for the second. The second is the more potent here.

First: Cc1nc2cc(-c3nc(C#N)ccc3-c3cnn(CC(C)(F)F)c3)ccc2n1C [Example 31, 5-[1-(2,2-difluoropropyl)-1H-pyrazol-4-yl]-6-(1,2-dimethyl-1H-benzimidazol-5-yl)pyridine-2-carbonitrile]
Second: CC(C)(C)Cn1cc(-c2ccc(C#N)nc2-c2ccn3cc(C(F)(F)F)nc3c2)cn1 [Example 66, 5-[1-(2,2-dimethylpropyl)-1H-pyrazol-4-yl]-6-[2-(trifluoromethyl)imidazo [1,2-a]pyridin-7-yl]pyridine-2-carbonitrile]
The EC50 of the first is 3-fold higher: 163 nM for the first, 54.4 nM for the second. The second is the more potent here.

In the case of Cc1ccc(-c2cnn(CC3(C)CCCCC3)c2)c(-c2ccc3c(C)n[nH]c3c2)n1 [Example 4, 3-methyl-6-(6-methyl-3-{1-[(1-methylcyclohexyl)methyl]-1H-pyrazol-4-yl}pyridin-2-yl)-1H-indazole], the EC50 is reported as 69.9 nM.
